The results in this text go back to US10022389B2, “Prophylactic or therapeutic drug for constipation” (TAISHO PHARMACEUTICAL CO., LTD., priority 2013, dated 2018).

What all share (assay type): in vivo, SD/IGS rats
Data set [1] in a line: Test 3: percentage of compound (I) remaining unaltered in rat's digestive tract. The settings on record: 1 mg/kg oral; for Remaining unaltered, cecum/large intestine (including the contents), relative to dose / Remaining unaltered, small intestine's contents, relative to dose / Remaining unaltered, small intestine, relative to dose / Remaining unaltered, total, relative to dose: average of 4 cases ± S.D. As to the method:
Test 3: Percentage of Compound (I) Remaining Unaltered in Rat's Digestive Tract
Seven-week old SD/IGS rats (CHARLES RIVER LABORATORIES JAPAN, INC.; male; fasted) were orally administered compound (I) (1 mg/kg) formulated with an aqueous solution of 0.5% CMC-Na (carboxymethylcellulose sodium salt). One, four and seven hours after the drug administration, the rats were euthanized under anesthetization with ether and their small intestine, cecum, and large intestine were removed. The contents of the small intestine were recovered by infusing the small intestine with 20 mL of physiological saline. After washing the tissue's surface with physiological saline, the tissues and the recovered contents were measured for their weight and homogenized under cooling with ice in the presence of added 4 volumes of purified water. The homogenate was deproteinated in the presence of an added acetonitrile/methanol solution containing an internal standard and, thereafter, the supernatant was analyzed by LC-MS/MS (Applied Biosystems: API3000). Drug-derived ions were detected by selected reaction monitoring based on electrospray ionization in a positive ion mode. From peak areas in the resulting extracted ion chromatogram, drug concentrations in the homogenate were calculated by the internal standard method.
The internal standard here used was compound 11 disclosed in WO2007/136116.

Data set [2] concerns rats with constipation induced by low-fiber diet. Nature of the data set: Test 1: ameliorating effect on constipation models fed on low-fiber diet. The settings on record: low-fiber diet constipation model rats, oral in 0.5% MC, dosed twice (0 and 8 h). As to the method:
Test 1: Ameliorating Effect on Constipation Models Fed on Low-Fiber Diet
SD/IGS rats (6-wk old; CHARLES RIVER LABORATORIES JAPAN, INC.) in groups, each consisting of two heads per cage, were fed on a diet with a decreased dietary fiber content of 5% for a week in order to induce constipation. The normal group was fed on a standard diet with 15% dietary fiber (MF diet; ORIENTAL YEAST CO., LTD.) On the day before the test, each rat was measured for body weight and thereafter transferred into an individual cage. Grouping was performed on the basis of the body weights measured on the day before the test. The experimental groups of rats with induced constipation were orally administered compound (I) in a volume of 5 mL/kg body weight as dissolved in 0.5% (w/v) methylcellulose (MC), whereas the control vehicle group was orally administered 0.5% MC only. […] Immediately after the first administration, a stool recovery tray was placed under each cage and starting 2 hours after the administration, stools were recovered every two hours until 24 hours after the administration; the appearance of the recovered stools was observed and their weight was measured. To determine their moisture content, the stools were measured for their wet weight, dried for at least 8 hours at 100° C., measured for dry weight, and its proportion (%) to the wet weight was calculated. […]

Data set [3] relates to rats with loperamide-induced constipation. In words: Test 2: ameliorating effect on loperamide-induced constipation. The settings on record: loperamide (5 mg/kg p.o.) constipation model rats, oral in 0.5% MC. The protocol: Test 2: Ameriolating Effect on Loperamide-Induced Constipation
The effects on constipation as induced by loperamide which suppresses the propulsion of the digestive tract's contents and the secretion of intestinal juice were investigated.
SD/IGS rats (6-wk old; CHARLES RIVER LABORATORIES JAPAN, INC.) in groups, each consisting of one head per cage, were kept in a day-and-night reversal room for 11 days. The rats were fasted for about 16 hours and orally administered 0.5% MC suspended loperamide at a dose of 5 mg/5 mL/kg body weight to prepare constipation models. The normal group was orally administered on 0.5% MC only. […] Immediately after the administration of compound (I), 5 g of a standard diet (MF diet; ORIENTAL YEAST CO., LTD.) was applied and thereafter, a stool recovery tray was placed under each cage and starting 2 hours after the administration, stools were recovered every two hours until after 12 hours; the appearance of the recovered stools was observed and their weight was measured. To determine their moisture content, the stools were measured for their wet weight, dried for at least 8 hours at 100° C., measured for dry weight, and its proportion (%) to the wet weight was calculated. […]

Take `COc1cc(C(C)C)c(Cc2ccc(/C=C/C(C)(C)C(=O)NC(C)(C)C(=O)NCCN(C)C)cc2)cc1[C@@H]1O[C@H](CO)[C@@H](O)[C@H](O)[C@H]1O` [Compound (I), (1S)-1,5-anhydro-1-[5-(4-{(1E)-4-[(1-{[2-(dimethylamino)ethyl]amino}-2-methyl-1-oxopropan-2-yl)amino]-3,3-dimethyl-4-oxobut-1-en-1-yl}benzyl)-2-methoxy-4-(propan-2-yl)phenyl]-D-glucitol]: the “dose remaining unaltered in the small intestine and its contents” value in data set [1] (1 hour after drug administration) and in data set [1] (4 hours after drug administration) was “about 75%” throughout. Further, the “Remaining unaltered, cecum/large intestine (including the contents), relative to dose” value is 0.2 ± 0.3 % of dose in data set [1] (1 hr after dosing), 33.1 ± 44.5 % of dose in data set [1] (4 hr after dosing) and 84.2 ± 8.8 % of dose in data set [1] (7 hr after dosing). The “Remaining unaltered, small intestine's contents, relative to dose” value in data set [1] (1 hr after dosing) was 70.3 ± 6.7 % of dose; in data set [1] (4 hr after dosing), 69.7 ± 44.9 % of dose; in data set [1] (7 hr after dosing), 1.6 ± 1.2 % of dose. Also, the entries for the “Remaining unaltered, small intestine, relative to dose” value in data set [1] (1 hr after dosing), in data set [1] (4 hr after dosing) and in data set [1] (7 hr after dosing) were 4.9 ± 0.6 % of dose, 6.4 ± 5.3 % of dose and 0.7 ± 0.3 % of dose, respectively. The “Remaining unaltered, total, relative to dose” value in data set [1] (1 hr after dosing) was 75.4 ± 6.3 % of dose; in data set [1] (4 hr after dosing), 109.2 ± 10.7 % of dose; in data set [1] (7 hr after dosing), 86.5 ± 9.2 % of dose. The “wet weight of stools” value in data set [2] (stools recovered until 24 hours (FIG. 1)) and in data set [3] (stools recovered until 12 hours (FIG. 3)) was “increased” each time. Besides, the “moisture content of stools” value in data set [2] (stools recovered until 24 hours (FIG. 2)) and in data set [3] (stools recovered until 12 hours (FIG. 4)) was “increased” each time.
